These compounds were tested on influenza A/California/2009 (H1N1) (assay: microbe, parasite or virus in culture). Conditions: H1N1, MDCK.
Type: cell-based

SMILES	EC50 [nM]
O=C1c2c(O)c(=O)ccn2N([C@@H]2c3ccc(F)c(F)c3CSc3ccsc32)[C@@H]2COCCN12 [1.3.2, (12aR)-7-hydroxy-12-[(10R)-6,7-difluoro-5,10-dihydrothieno[3,2-c][2]benzothiepin-10-yl]-3,4,12,12a-tetrahydro-1H-[1,4]oxazino[3,4-c]pyrido[2,1-f][1,2,4]triazine-6,8-dione]	< 0.3
O=C1c2c(O)c(=O)ccn2N([C@H](c2ccccc2)c2ccc(F)c(F)c2)[C@@H]2COCCN12 [1.8.2, (12aR)-7-hydroxy-12-[(R)-(3,4-difluorophenyl)(phenyl)methyl]-3,4,12,12a-tetrahydro-1H-[1,4]oxazino[3,4-c]pyrido[2,1-f][1,2,4]triazine-6,8-dione]	2 to 4
O=C1c2c(O)c(=O)ccn2N([C@@H](c2ccccc2)c2ccc(F)c(F)c2)[C@@H]2COCCN12 [1.9.2, (12aR)-7-hydroxy-12-[(S)-(3,4-difluorophenyl)(phenyl)methyl]-3,4,12,12a-tetrahydro-1H-[1,4]oxazino[3,4-c]pyrido[2,1-f][1,2,4]triazine-6,8-dione]	2 to 4
O=C1c2c(O)c(=O)ccn2N(C(c2ccccc2)c2ccccc2)[C@@H]2COCCN12 [1.13.2, (12aR)-7-hydroxy-12-diphenylmethyl-3,4,12,12a-tetrahydro-1H-[1,4]oxazino[3,4-c]pyrido[2,1-f][1,2,4]triazine-6,8-dione]	2 to 4
O=C1c2c(O)c(=O)ccn2N(C(c2ccc(F)cc2)c2ccc(F)cc2)[C@@H]2COCCN12 [1.14.2, (12aR)-7-hydroxy-12-[bis(4-fluorophenyl)methyl]-3,4,12,12a-tetrahydro-1H-[1,4]oxazino[3,4-c]pyrido[2,1-f][1,2,4]triazine-6,8-dione]	2 to 4

From patent US12091423B2, “Substituted 3,4,12,12a-tetrahydro-1H-[1,4]oxazino[3,4-c]pyrido[2,1-f][1,2,4]triazine-6,8-dione, pharmaceutical composition, method for the production and use thereof” (VIRIOM, INC., priority 2019, dated 2024)
